In patent publication US10071992B2, “Diacylglycerol acyl transferase 2 inhibitors” (Pfizer Inc., priority 2016, dated 2018) one finds IC50 and microsomal CLint data, which are given here for 14 compounds.

One data set has as its target DGAT2 (Homo sapiens (Human), UniProt Q96PD7). Description: IC50 values for DGAT2 inhibitors in human hepatocytes. In kind it is cell-based. The note with it: geometric mean, N=10; cryopreserved human hepatocytes, DGAT1 inhibitor at 3 μM present, [1,3-14C]-glycerol incorporation. The procedure: After 24 hours overnight recovery period, the cells were overlayed with media containing 250 μg/ml Matrigel (BD Biosciences, San Jose, Calif.). The following day, media was aspirated and replaced with serum-free Williams Media E (Life Technologies, Grand Island, N.Y.) containing 400 μM sodium dodecanoate (Sigma-Aldrich, St. Louis, Mo.). […] After separation, radiolabeled lipids were visualized using a Molecular Dynamics' PhosphorImager system.

The target of a further data set is human DGAT2 (hDGAT2) (Homo sapiens (Human), UniProt Q96PD7). Kind of data set: In vitro DGAT2 assay, determination of IC50 values for DGAT2 inhibitors. In kind it is biochemical. The procedure: Recombinant baculovirus for the FLAG-tagged hDGAT2 was generated in SF9 insect cells using Bac-to-Bac baculovirus expression system (Invitrogen) according to the manufacturer's protocol. For the expression of hDGAT2, SF9 cells (20 L) grown in Sf90011 media were infected with hDGAT2 baculovirus at a multiplicity of infection of 1 in a Wave Bioreactor System 20/50P wave bag (GE Healthcare). After 40 hours of infection, the cells were then harvested by centrifugation at 5,000×g. The cell pellets were washed by resuspending in phosphate buffered saline (PBS) and collected by centrifugation at 5,000×g. The cell paste was flash frozen in liquid N2 and stored at −80° C. until needed. All operations below were at 4° C. unless otherwise noted. The cells were resuspended in lysis buffer (50 mM Tris-HCl, pH 8.0, 250 mM sucrose) including 1 mM ethylenediaminetetraacetic acid (EDTA) and the complete protease inhibitor cocktail (Roche Diagnostics) at a ratio of 3 ml buffer per 1 g cell paste. The cells were lysed by dounce homogenizer. The cell debris was removed by centrifugation at 1,000×g for 20 min, and the supernatant was centrifuged at 100,000×g for 1 hour. The resulting pellet was rinsed three times by filling ultracentrifuge tubes to the top with ice cold PBS before decanting. The washed pellet was resuspended with gentle stirring for 1 hour in lysis buffer containing 8 mM 3-[(3-cholamidopropyl)dimethylammonio]-1-propanesulfonate (CHAPS) at a ratio of 1 mL buffer per 1 g of original cell paste and centrifuged again at 100,000×g for 1 hour. The resulting supernatant was aliquotted, flash frozen in liquid N2, and stored at −80° C. until use.
To 1 μL of compounds dissolved in 100% DMSO and spotted at the bottom of each well, 5 μL of 0.04% bovine serum albumin (BSA) (fatty acid free, Sigma Aldrich) was added and the mixture was incubated at room temperature for 15 minutes. hDGAT2 membrane fractions were diluted in 100 mM Hepes-NaOH, pH 7.4, 20 mM MgCl2 containing 200 nM methyl arachidonyl fluorophosphonate (Cayman Chemical; dried from ethyl acetate stock solution under argon gas and dissolved in DMSO as 5 mM stock). 10 μL of this enzyme working solution was added to the plates and incubation continued for 2 hours at room temperature. DGAT2 reactions were initiated by the addition of 4 μL of substrates containing 30 μM [1-^14C]decanoyl-CoA (custom-synthesized by Perkin Elmer, 50 mCi/mmol) and 125 μM 1,2-didecanoyl-sn-glycerol (Avanti Polar Lipids) dissolved in 12.5% acetone. The reaction mixtures were incubated at room temperature for 40 min and the reactions were stopped by addition of 5 μL of 1% H3PO4. After the addition of 45 μL MicroScint-E (Perkin-Elmer), plates were sealed with Top Seal-A covers (Perkin-Elmer) and phase partitioning of substrates and products was achieved using a HT-91100 microplate orbital shaker (Big Bear Automation, Santa Clara, Calif.). Plates were centrifuged at 2,000×g for 1 minute in an Allegra 6R Centrifuge (Beckman Coulter) and then were sealed again with fresh covers before reading in a 1450 Microbeta Wallac Trilux Scintillation Counter (Perkin Elmer). DGAT2 activity was measured by quantifying the generated product [^14C]tridecanoylglycerol in the upper organic phase.
Inhibitors were tested at eleven different concentrations to generate IC50 values for each compound.

Data set [1] can be described thus: Metabolic clearance in HLM (hepatic clearance profile). The class given is in vitro ADME. The settings on record: human, human liver microsomes, read-out: Clint, app in HLM. (In general: Microsomes from liver hold many membrane-bound enzymes, among them those of drug oxidation.)
Setting [2] is: geometric mean, hDGAT2 membrane fraction, [1-14C]decanoyl-CoA and 1,2-didecanoyl-sn-glycerol.
Setting [3] is: Table 3, comparison with WO2015140658 Example 19.21.

Chain of human DGAT2 (hDGAT2) (Q96PD7 whole entry): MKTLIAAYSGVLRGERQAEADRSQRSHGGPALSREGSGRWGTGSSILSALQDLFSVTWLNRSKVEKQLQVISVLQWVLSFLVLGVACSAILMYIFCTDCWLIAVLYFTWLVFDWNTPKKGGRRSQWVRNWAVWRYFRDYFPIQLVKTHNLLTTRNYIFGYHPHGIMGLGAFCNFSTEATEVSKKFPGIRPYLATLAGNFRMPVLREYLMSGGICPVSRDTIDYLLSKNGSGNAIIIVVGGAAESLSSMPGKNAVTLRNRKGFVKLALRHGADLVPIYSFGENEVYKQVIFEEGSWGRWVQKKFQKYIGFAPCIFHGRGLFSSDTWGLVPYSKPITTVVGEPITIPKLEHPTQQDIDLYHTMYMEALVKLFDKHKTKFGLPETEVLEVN
Chain of DGAT2 (Q96PD7 whole entry): as above

`CCOc1cccnc1Oc1cncc(-c2ncc(C(=O)N[C@H]3CCOC3)cn2)c1` [Example 1, (S)-2-(5-((3-ethoxypyridin-2-yl)oxy)pyridin-3-yl)-N-(tetrahydrofuran-3-yl)pyrimidine-5-carboxamide] yielded a half-maximal inhibitory concentration (IC50) at DGAT2 of 2.8 nM. For the compound `CCOc1cccnc1Oc1cncc(-c2ncc(C(=O)N[C@@H]3CCOC3)cn2)c1` [Example 2, (R)-2-(5-((3-Ethoxypyridin-2-yl)oxy)pyridin-3-yl)-N-(tetrahydrofuran-3-yl)pyrimidine-5-carboxamide], the midpoint of inhibition against human DGAT2 (hDGAT2) (setting [2]), the IC50, lay at 200 nM.

`CCOc1cccnc1Oc1cncc(-c2ncc(C(=O)NC3(C)CCS(=O)(=O)C3)cn2)c1` (centres unmarked) [Example 3.1, 2-(5-((3-ethoxypyridin-2-yl)oxy)pyridin-3-yl)-N-(3-methyl-1,1-dioxidotetrahydrothiophen-3-yl)pyrimidine-5-carboxamide] came in with a 50% inhibitory concentration (IC50) against human DGAT2 (hDGAT2) (setting [2]) of 13.5 nM. On the same count and under the same terms, for `CCOc1cccnc1Oc1cncc(-c2ncc(C(=O)NC(C)(CO)CO)cn2)c1` [Example 3.2, N-(1,3-dihydroxy-2-methylpropan-2-yl)-2-(5-((3-ethoxypyridin-2-yl)oxy)pyridin-3-yl)pyrimidine-5-carboxamide] the value was 83.6 nM; for `CCOc1cccnc1Oc1cncc(-c2ncc(C(=O)NC3CCS(=O)(=O)C3)cn2)c1` (centres unmarked) [Example 3.3, N-(1,1-dioxidotetrahydrothiophen-3-yl)-2-(5-((3-ethoxypyridin-2-yl)oxy)pyridin-3-yl)pyrimidine-5-carboxamide], 196 nM; for `CCOc1cccnc1Oc1cncc(-c2ncc(C(=O)N[C@H]3CCOC3)nn2)c1` [Example 3.4, (S)-3-(5-((3-ethoxypyridin-2-yl)oxy)pyridin-3-yl)-N-(tetrahydrofuran-3-yl)-1,2,4-triazine-6-carboxamide], 181 nM.

On human DGAT2 (hDGAT2) (setting [2]), `CCOc1nccnc1Oc1cncc(-c2ncc(C(=O)NC(C)(C)CO)cn2)c1` [Example 3.5, 2-(5-((3-ethoxypyrazin-2-yl)oxy)pyridin-3-yl)-N-(1-hydroxy-2-methylpropan-2-yl)pyrimidine-5-carboxamide] gave an IC50 of 238 nM. Still for that read-out and setting: for `CCOc1cccnc1Oc1cncc(-c2ncc(C(=O)NC(C)(C)CS(C)(=O)=O)cn2)c1` [Example 3.6, 2-(5-((3-ethoxypyridin-2-yl)oxy)pyridin-3-yl)-N-(2-methyl-1-(methylsulfonyl)propan-2-yl)pyrimidine-5-carboxamide] the value was 35.4 nM. Same read-out and setting: the same measure for `O=C(N[C@H]1CCOC1)c1cnc(-c2cncc(Oc3ncccc3OCCF)c2)nc1` [Example 3.7, (S)-2-(5-((3-(2-fluoroethoxy)pyridin-2-yl)oxy)pyridin-3-yl)-N-(tetrahydrofuran-3-yl)pyrimidine-5-carboxamide]: 66.5 nM.

Compound `CCOc1cccnc1Oc1cncc(-c2ncc(C(=O)NC(C)(C)C#N)cn2)c1` [Example 4, N-(2-cyanopropan-2-yl)-2-(5-((3-ethoxypyridin-2-yl)oxy)pyridin-3-yl)pyrimidine-5-carboxamide] yielded an IC50 at human DGAT2 (hDGAT2) (setting [2]) of 7.4 nM. In the case of `CCOc1cccnc1Oc1cncc(-c2ncc(C(=O)NC(C)(C)CO)cn2)c1` [Example 5, 2-(5-((3-Ethoxypyridin-2-yl)oxy)pyridin-3-yl)-N-(1-hydroxy-2-methylpropan-2-yl)pyrimidine-5-carboxamide], the IC50 at human DGAT2 (hDGAT2) (setting [3]) and on human DGAT2 (hDGAT2) (setting [2]) was 14 nM in each case. Moreover, the microsomal CLint in data set [1] came out at 18 µL/min/mg. At human DGAT2 (hDGAT2) (setting [2]), `CCOc1cccnc1Oc1cncc(-c2ncc(C(=O)NC(C)(C)CO)nn2)c1` [Example 7, 3-{5-[(3-ethoxypyridin-2-yl)oxy]pyridin-3-yl}-N-(1-hydroxy-2-methylpropan-2-yl)-1,2,4-triazine-6-carboxamide] had an IC50 of 83 nM.

In the case of `CCOc1cc(F)cnc1Oc1cncc(-c2ncc(C(=O)N[C@H]3CCOC3)cn2)c1` [Example 8, (S)-2-(5-((3-Ethoxy-5-fluoropyridin-2-yl)oxy)pyridin-3-yl)-N-(tetrahydrofuran-3-yl)pyrimidine-5-carboxamide], the IC50 at human DGAT2 (hDGAT2) (setting [2]) amounted to 3.7 nM. In the case of `CCOc1ccccc1O[C@@H]1CCCN(c2ncc(C(=O)NC(C)(C)CO)cn2)C1` [WO2015140658 Example 19.21, reference compound], the 50% inhibitory concentration (IC50) against human DGAT2 (hDGAT2) (setting [3]) is 7.9 nM. In addition, the microsomal CLint in data set [1] turned out to be 121 µL/min/mg.

What is called IC50 is the concentration that gives 50% inhibition. Low readings indicate greater potency, high ones weaker potency.
